Test results taken from patent US20240181125A1, “COMPOSITIONS AND METHODS FOR SCARLESS WOUND HEALING IN DIABETES” (Washington University, priority 2022, published 2024).
Bridge positions count the residues as written; N and C are the ends. Peptide text beside a SMILES is read from it. * marks the point of attachment. FITC = O=C1OC2(c3ccc(O)cc3Oc3cc(O)ccc32)c2ccc(NC(=S)*)cc21

Experiments:
[1] = system: HDFs; test: 2D scratch migration assay, HDF; type: cell-based, human; conditions: high glucose and TGFβ1, 72 hours
Experimental: (§1) HDFs, HaCaTs, and HAECs were cultured in 6-well plates using serum-free high glucose (4.5 g/L) basal medium with 1% P/S. After the cells reached confluency, a 200-μL pipet tip was used to scrape the cell monolayer. Then 3 mL of medium containing TGFβ1 (10 ng/ml) or TGFβ1 (10 ng/ml)/PTβR2I (10 μg/mL) was added to the wells. The cells were imaged at predetermined time points using a bright-field microscope. The distances between the scratch walls were measured using ImageJ to calculate the migration ratio

[2] = system: HAECs; test: 2D scratch migration assay, HAEC; type: cell-based, human; conditions: high glucose and TGFβ1, 36 hours
Experimental: as §1

[3] = target: T1, TβR2 on the HDFs (Homo sapiens, UniProt P37173); test: Bioactivity of released PTβR2I (cell binding assay on HDFs); type: cell-based; conditions: released on days 3, 8, 14; loadings 10, 20, 50 μg/mL
T1 construct: host or cells: human dermal fibroblasts (HDFs)
T1 sequence (P37173 23-567): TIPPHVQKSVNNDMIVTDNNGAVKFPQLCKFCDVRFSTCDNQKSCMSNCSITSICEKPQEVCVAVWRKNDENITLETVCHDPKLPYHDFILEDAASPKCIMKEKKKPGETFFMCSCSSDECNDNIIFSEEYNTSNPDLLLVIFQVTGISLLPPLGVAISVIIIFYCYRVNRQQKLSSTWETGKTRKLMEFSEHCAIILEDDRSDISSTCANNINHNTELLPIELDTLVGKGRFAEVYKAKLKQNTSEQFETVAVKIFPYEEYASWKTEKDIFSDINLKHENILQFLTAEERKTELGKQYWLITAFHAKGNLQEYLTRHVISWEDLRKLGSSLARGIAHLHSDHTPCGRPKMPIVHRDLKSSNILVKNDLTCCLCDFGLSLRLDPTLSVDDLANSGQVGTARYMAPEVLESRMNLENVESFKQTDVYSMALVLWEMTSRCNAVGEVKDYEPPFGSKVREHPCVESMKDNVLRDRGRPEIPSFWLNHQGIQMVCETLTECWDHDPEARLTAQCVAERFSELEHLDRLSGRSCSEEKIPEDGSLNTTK
Experimental: (§2) Wound dressings were fabricated by encapsulating PTβR2I in the hydrogel solution at 4° C. Briefly, PTβR2I solution was mixed with 6 wt. % hydrogel solution to reach final PTβR2I concentrations of 10 μg/mL, 20 μg/mL and 50 μg/mL. The mixtures were stirred at 4° C. for 12 hours. To determine PTβR2I release kinetics, the mixtures were first incubated at 37° C. to gel. After 1 hour, the supernatant was replaced by a release medium (DPBS with 1% P/S). The medium was then collected at pre-determined time points for 21 days, and a fresh release medium was added after each collection. The concentration of the released PTβR2I was determined by measuring the fluorescence intensity and calculating the corresponding concentration using a standard curve. The bioactivity of the released PTβR2I was evaluated by its ability to bind to the TβR2 on the HDFs. The collected released medium was added to the culture medium of HDFs that were seeded in a 96-well plate. After 2 hours of incubation, the cells were washed three times with DPBS, and the fluorescence intensity was measured using a microplate reader (excitation/emission=485/535 nm).

[4] = system: HaCaTs; test: mRNA expression (RT-PCR), HaCaTs; type: cell-based, human; conditions: high glucose and TGFβ1
Experimental: (§3) To determine the mRNA expression of the cells (HDFs, HaCaTs, and HAECs) treated with TGFβ1 (10 ng/ml) or TGFβ1 (10 ng/ml)/PTβR2I (10 μg/mL) under high glucose conditions, RNA was extracted using Trizol (Invitrogen) and reverse transcribed using a cDNA synthesis kit (Applied Biosystems). Gene expression was performed by real-time RT-PCR, using Maxima SYBR Green/Fluorescein Master Mix (Thermofisher) and selected primer pairs, shown in Table 1 below. β-actin served as the housekeeping gene. The ΔΔCt method was used for data analysis.

[5] = system: HAECs; test: Cell proliferation (dsDNA) under high glucose and TGFβ1, HAEC; type: cell-based, human; conditions: high glucose, TGFβ1 10 ng/ml, PTβR2I 10 μg/mL; p<0.05
Experimental: HDFs, HaCaTs, and HAECs were seeded in 96-well plates at respective densities of 1.5×10^4 cells/mL, 2×10^4 cells/mL, and 2×10^4 cells/mL. High glucose (4.5 g/L) basal medium with 1% P/S was used for the culture. After 24 hours, TGFβ1 (10 ng/ml) or TGFβ1 (10 ng/ml)/PTβR2I (10 μg/mL) was added to the medium. The culture continued for three days. The medium was then replaced by papain solution and incubated at 60° C. for 24 hours. The dsDNA content was tested using a Quant-iT™ PicoGreen dsDNA Assay Kit (Invitrogen).

[6] = system: wounds of db/+ mice; test: Wound assay on non-diabetic db/+ mice; conditions: mouse, in vivo
Experimental: The same wound assay was performed on db/+ mice and monitored the wound closure for eight days (FIG. 11A). The No-treatment, Gel, and PTβR2I/Gel groups all had similar healing rates, with wound sizes less than 10% of the original after 8 days (FIG. 11B and C). To delineate the mechanism, in vitro immunoblotting was performed on dermal fibroblasts under normal glucose conditions that mimicked the microenvironment of db/+ mice (FIG. 11D).

[7] = In vitro release of peptide from hydrogel; type: physicochemical; conditions: 21-day study, 37° C., DPBS; loadings 10, 20, 50 μg/mL
Experimental: To characterize the ECG release properties of the NIPAAm-based hydrogels disclosed herein, the following experiments were conducted. Hydrogel samples were synthesized with varying levels of ECG loading: 10 μg/mL, 20 μg/mL, and 50 μg/mL. The cumulative release of ECG from the hydrogel samples was assessed over a three-week period.
as §2, with “The collected released medium was added to the culture medium of HDFs that were seeded in a 96-well plate.” left out

[8] = system: THP-1-derived CD86+M1 macrophages; test: mRNA expression (RT-PCR), M1 macrophages; type: cell-based, human; conditions: high glucose and TGFβ1
Experimental: Macrophages were derived from THP-1, a human monocytic cell line (ATCC). THP-1 cells were treated with 100 ng/ml phorbol 12-myristate 13-acetate (PMA, Millipore-Sigma, P1585) for 48 hours, followed by 24 hours in RPMI 1640 medium (ATCC) with 10% FBS and 1% P/S. To induce differentiation into M1 macrophages, the cells were treated with 100 pg/mL lipopolysaccharide (LPS, Millipore-Sigma) and 20 ng/ml interferon-gamma (IFN-γ, Millipore-Sigma) for 48 hours.
as §3

[9] = system: human aortic endothelial cells (HAEC); test: Cytotoxicity of PTβR2I on endothelial cells; type: cell-based; parameters: dose or concentration left out as unconfirmed

bioactivity of released PTβR2I [3]: remained bioactive
Compound: CC(C)C[C@@H]1NC(=O)CNC(=O)[C@@H](NC(=O)[C@@H](N)CCC(=O)O)CSSC[C@@H](C(=O)N[C@@H](CCCCNC(=S)Nc2ccc3c(c2)C(=O)OC32c3ccc(O)cc3Oc3cc(O)ccc32)C(=O)O)NC(=O)[C@H](CC(C)C)NC(=O)[C@H](CCCNC(=N)N)NC(=O)[C@H](Cc2c[nH]c3ccccc23)NC(=O)[C@H](C(C)C)NC(=O)[C@H](CCCNC(=N)N)NC(=O)[C@H](CC(=O)O)NC(=O)[C@@H]2CCCN2C(=O)[C@H](CCCNC(=N)N)NC(=O)CNC(=O)[C@H](C(C)C)NC(=O)[C@@H]2CCCN2C(=O)[C@H](CC(C)C)NC1=O [PTβR2I, ECGLLPVGRPDRVWRLCK-FITC] (H-ECGLLPVGRPDRVWRLCK(FITC)-OH; disulfide 2-17; N-terminus and C-terminus assumed)
migration [1]: significantly higher number of cells had migrated
migration [2]: significantly higher number of cells had migrated
IL1B mRNA expression [4]: significantly reduced
IL6 mRNA expression [4]: significantly reduced
proliferation (dsDNA, day 3) [5]: Significantly improved proliferation
efficacy on db/+ mice [6]: not effective
release profile from wound dressing [7]: initial burst release was observed on the first day, followed by a slower and sustained release until day 21
IL6 mRNA expression [8]: significantly reduced
PDGFBB gene expression [8]: significantly enhanced
cell viability [9]: no decrease in viability
